# Test results reported in PMC4728661, “Cancer Prevention and Health Benefices of Traditionally Consumed Borago officinalis Plants” (Nutrients, 2016).
# Marks after values point to notes of the source that are not given here.
# Legend:
# [1] = tested on: D. melanogaster; assay: Toxicity: survival of Drosophila larvae to emerged adults, simple and combined (H2O2) treatments; format: in vivo, Drosophila melanogaster
# Method: Optimal fertile flies were anesthetized under CO2 narcotisation for cross selection and then placed in new vials for fertilization. After that, hybrid eggs from crossing were collected over an 8 h period and emerged larvae (72 ± 4 h later) were cleaned up for a few seconds in sterile distilled water to remove feeding medium rests. […] Bioactive compound concentrations were chosen on the basis of their known content in B. officinalis species. […] Larvae were fed on these media until pupation (about 48 h). After emergence, resulting adult flies were sacrificed under CO2 narcotisation and stored in a 70% ethanol solution in sterile water. […] The determination of Toxicity (T) of treatments in D. melanogaster was performed following this formula [39]: T = (N° of emerging individuals in treatment/N° of emerging individuals in the negative control) × 100(1) Differences in D. melanogaster survival between treatments at each concentration with respect to negative control were analyzed with a Chi-square test. This procedure was also performed for the analysis of each simple treatment with their correspondent combined treatment.
# [2] = tested on: HL-60 cells; assay: Cytotoxicity: HL-60 growth/viability, Trypan Blue dye exclusion; format: cell-based, human; conditions: 0.03–1 mM, 72 h
# Method: The human acute promyelocytic leukemia cell line HL-60 was routinely grown in suspension in RPMI medium (Invitrogen, Madrid, Spain) containing glutamine ([…], Sigma-Aldrich, St. Louis, MO, USA), antibiotics (100IU penicillin mL^−1 and 100 μg streptomycin mL^−1, Sigma-Aldrich) and supplemented with 10% heat-inactivated foetal bovine serum (Linus, Cultek, Madrid, Spain) and placed in an incubator (Shel Lab, Cornelious, OR, USA) with a 5% CO2 humidified atmosphere at 37 °C [36]. HL-60 cells were subcultured every 2–3 days to maintain logarithmic growth and they were allowed to grow for 48 h before use. Cultures were plated at a density of 12.5 × 10^4 cells mL^−1 in 40 mL culture flasks (25 cm^2). Cytotoxic activity was measured as growing inhibition or decreased viability on HL-60 cells following a previous protocol modified by us. […] Cells were counted after 72 h treatment. Tested concentrations were calculated according to those used for in vivo assays to equal the range of tested doses. Untreated cultures were used as negative control. Cell viability was determined by the Trypan Blue dye exclusion test. Cells were stained with an equal volume of Trypan Blue commercial solution (Sigma-Aldrich) and counted using a hemocytometer at room temperature under a light inverted microscope (AE30/31, Motic, Barcelona, Spain). Cytotoxic effect evaluation was determined after each culture incubation period, establishing a growth curve and determining IC50 values by regression analysis of the curves. Viability estimated regressions of leukemia cells are presented as a survival percentage with respect to controls at 72 h growth and plotted as mean viability ± standard error of at least three independent replicas for each treatment and concentration.
# [3] = tested on: D. melanogaster; assay: Antigenotoxicity: SMART, combined treatments with H2O2 0.12 M; format: in vivo, Drosophila melanogaster; for Diagnosis, Large Single Spots >2 Cells m = 5: key: + (positive); − (negative); for Diagnosis, Small Single Spots 1–2 Cells m = 2: key: + (positive); − (negative); for Diagnosis, Total Spots m = 2: key: + (positive); − (negative); for Diagnosis, Twin Spots m = 5: key: + (positive); − (negative)
# Method: The D. melanogaster system was selected for the determination of the safety of B. officinalis consumption as a well-recognized method to analyze vegetable complex mixtures using SMART [31, 32]. This test was used in order to evaluate the genotoxic and antigenotoxic activity of B. officinalis leaves and petioles as well as their selected bioactive compounds [33]. This activity was measured by direct visualization of the occurrence of recessive mutations in the wing hairs of two different D. melanogaster strains. Flies from experiments carried these visible wing genetic markers: the flare (flr) strain […]) TM3, Bd^s and the multiple wing-hair (mwh) strain […] [35]. The marker flare (flr^3, 3_38.3) produces individual malformed hairs and the marker multiple wing hairs (mwh, 3_0.3) produces multiple hairs per cell. Larvae used in treatments come from two types of crosses: the standard cross with flr^3/TM3, Bd^S females mated to […] and the reciprocal cross. Optimal fertile flies were anesthetized under CO2 narcotisation for cross selection and then placed in new vials for fertilization. After that, hybrid eggs from crossing were collected over an 8 h period and emerged larvae (72 ± 4 h later) were cleaned up for a few seconds in sterile distilled water to remove feeding medium rests. […] Bioactive compound concentrations were chosen on the basis of their known content in B. officinalis species. […] Larvae were fed on these media until pupation (about 48 h). After emergence, resulting adult flies were sacrificed under CO2 narcotisation and stored in a 70% ethanol solution in sterile water. […] For the evaluation of genotoxic effects, the frequencies of spots per fly of each treated series were compared to the concurrent negative control for each class of mutational clone as well as between simple and combined treatments for the same concentration comparisons. […] A multiple-decision procedure was used to categorize results as positive, inconclusive or negative. Inconclusive and positive results were evaluated by the non-parametric U test of Mann, Whitney and Wilcoxon. The inhibition percentage (IP) of genotoxicity was calculated from the total frequencies of spots per wing, following this formula [42]: IP = (genotoxin alone - sample + genotoxin) × 100/(genotoxin alone)(2) Significant differences of IP for each treatment respect to the positive control were analyzed with a Chi-square test.
# [4] = combined with 0.12 M H2O2, 0.15 mM SI
# [5] = combined with 0.12 M H2O2, 0.29 mM SI
# [6] = combined with 0.12 M H2O2, 0.58 mM SI
# [7] = combined with 0.12 M H2O2, 1.16 mM SI
# [8] = combined with 0.12 M H2O2, 0.16 mM SY
# [9] = combined with 0.12 M H2O2, 0.32 mM SY
# [10] = combined with 0.12 M H2O2, 0.63 mM SY
# [11] = combined with 0.12 M H2O2, 1.26 mM SY
structure (smiles),measurement,setting,value
"COc1cc(/C=C/C(=O)O)cc(OC)c1O [SI, sinapic acid]",Survival,[1]; [4],"64 *^,‡ %"
same,Survival,[1]; [5],58.89 * %
same,Survival,[1]; [6],"39.78 *^,‡ %"
same,Survival,[1]; [7],"43.56 *^,‡ %"
same,Survival,"[1]; simple treatment, 0.15 mM SI",78.22 * %
same,Survival,"[1]; simple treatment, 0.29 mM SI",60.22 * %
same,Survival,"[1]; simple treatment, 0.58 mM SI",69.33 * %
same,Survival,"[1]; simple treatment, 1.16 mM SI",55.11 * %
same,Effect on HL-60 growth,[2],did not affect HL-60 growth
same,"Diagnosis, Small Single Spots 1–2 Cells m = 2",[3]; [4],−
same,"Diagnosis, Total Spots m = 2",[3]; [4],−
same,"Mutation rate, Large Single Spots >2 Cells m = 5",[3]; [4],0 spots/wing
same,"Mutation rate, Small Single Spots 1–2 Cells m = 2",[3]; [4],0.42 (5) spots/wing
same,"Mutation rate, Total Spots m = 2",[3]; [4],0.42 (5) spots/wing
same,"Mutation rate, Twin Spots m = 5",[3]; [4],0 spots/wing
same,"Diagnosis, Small Single Spots 1–2 Cells m = 2",[3]; [5],−
same,"Diagnosis, Total Spots m = 2",[3]; [5],−
same,"Mutation rate, Large Single Spots >2 Cells m = 5",[3]; [5],0 spots/wing
same,"Mutation rate, Small Single Spots 1–2 Cells m = 2",[3]; [5],0.25 (2) spots/wing
same,"Mutation rate, Total Spots m = 2",[3]; [5],0.25 (2) spots/wing
same,"Mutation rate, Twin Spots m = 5",[3]; [5],0 spots/wing
same,"Diagnosis, Large Single Spots >2 Cells m = 5",[3]; [6],−
same,"Diagnosis, Small Single Spots 1–2 Cells m = 2",[3]; [6],−
same,"Diagnosis, Total Spots m = 2",[3]; [6],−
same,"Diagnosis, Twin Spots m = 5",[3]; [6],−
same,"Mutation rate, Large Single Spots >2 Cells m = 5",[3]; [6],0.09 (2) spots/wing
same,"Mutation rate, Small Single Spots 1–2 Cells m = 2",[3]; [6],0.27 (6) spots/wing
same,"Mutation rate, Total Spots m = 2",[3]; [6],0.41 (9) spots/wing
same,"Mutation rate, Twin Spots m = 5",[3]; [6],0.05 (1) spots/wing
same,"Diagnosis, Large Single Spots >2 Cells m = 5",[3]; [7],−
same,"Diagnosis, Small Single Spots 1–2 Cells m = 2",[3]; [7],−
same,"Diagnosis, Total Spots m = 2",[3]; [7],−
same,"Mutation rate, Large Single Spots >2 Cells m = 5",[3]; [7],0.04 (1) spots/wing
same,"Mutation rate, Small Single Spots 1–2 Cells m = 2",[3]; [7],0.25 (7) spots/wing
same,"Mutation rate, Total Spots m = 2",[3]; [7],0.29 (8) spots/wing
same,"Mutation rate, Twin Spots m = 5",[3]; [7],0 spots/wing
"COc1cc(C(=O)O)cc(OC)c1O [SY, syringic acid]",Survival,[1]; [8],"31.11 *^,‡ %"
same,Survival,[1]; [9],"29.33 *^,‡ %"
same,Survival,[1]; [10],"20.44 *^,‡ %"
same,Survival,[1]; [11],"36.89 *^,‡ %"
same,Survival,"[1]; simple treatment, 0.16 mM SY",39.78 * %
same,Survival,"[1]; simple treatment, 0.32 mM SY",42.67 * %
same,Survival,"[1]; simple treatment, 0.63 mM SY",31.11 * %
same,Survival,"[1]; simple treatment, 1.26 mM SY",58.22 * %
same,Effect on HL-60 growth,[2],did not affect HL-60 growth
same,"Diagnosis, Small Single Spots 1–2 Cells m = 2",[3]; [8],−
same,"Diagnosis, Total Spots m = 2",[3]; [8],−
same,"Mutation rate, Large Single Spots >2 Cells m = 5",[3]; [8],0 spots/wing
same,"Mutation rate, Small Single Spots 1–2 Cells m = 2",[3]; [8],0.23 (5) spots/wing
same,"Mutation rate, Total Spots m = 2",[3]; [8],0.23 (5) spots/wing
same,"Mutation rate, Twin Spots m = 5",[3]; [8],0 spots/wing
same,"Diagnosis, Small Single Spots 1–2 Cells m = 2",[3]; [9],−
same,"Diagnosis, Total Spots m = 2",[3]; [9],−
same,"Mutation rate, Large Single Spots >2 Cells m = 5",[3]; [9],0 spots/wing
same,"Mutation rate, Small Single Spots 1–2 Cells m = 2",[3]; [9],0.30 (3) spots/wing
same,"Mutation rate, Total Spots m = 2",[3]; [9],0.30 (3) spots/wing
same,"Mutation rate, Twin Spots m = 5",[3]; [9],0 spots/wing
same,"Diagnosis, Small Single Spots 1–2 Cells m = 2",[3]; [10],−
same,"Diagnosis, Total Spots m = 2",[3]; [10],−
same,"Mutation rate, Large Single Spots >2 Cells m = 5",[3]; [10],0 spots/wing
same,"Mutation rate, Small Single Spots 1–2 Cells m = 2",[3]; [10],0.28 (9) spots/wing
same,"Mutation rate, Total Spots m = 2",[3]; [10],0.28 (9) spots/wing
same,"Mutation rate, Twin Spots m = 5",[3]; [10],0 spots/wing
same,"Diagnosis, Small Single Spots 1–2 Cells m = 2",[3]; [11],−
same,"Diagnosis, Total Spots m = 2",[3]; [11],−
same,"Mutation rate, Large Single Spots >2 Cells m = 5",[3]; [11],0 spots/wing
same,"Mutation rate, Small Single Spots 1–2 Cells m = 2",[3]; [11],0.32 (7) spots/wing
same,"Mutation rate, Total Spots m = 2",[3]; [11],0.32 (7) spots/wing
same,"Mutation rate, Twin Spots m = 5",[3]; [11],0 spots/wing
